Assay results reported in US20250171454A1, “HETEROBIFUNCTIONAL […] AMINOPURINE AND RELATED COMPOUNDS AND THEIR USE IN NSD2 DEGRADATION AND TREATING MEDICAL CONDITIONS” (K36 Therapeutics, Inc., priority 2023, published 2025).

Target: recombinant human NSD2 (amino acids 2-end) with N-terminal His tag (Homo sapiens (Human), UniProt O96028)
Experiment: NSD2 inhibitory activity, modified RBC HotSpot HMT Assay
Format: biochemical
Conditions: NSD2 2 nM, chicken oligonucleosomes 0.05 mg/mL, 3H-SAM 1 μM, 1 hour at 30° C.
Experimental: Exemplary compounds were tested for NSD2 inhibitory activity using a modified RBC HotSpot HMT Assay.
A reaction mixture was prepared by adding oligonucleosomes from chicken (0.05 mg/mL) to freshly prepared reaction buffer containing 50 mM Tris-HCl (pH 8.5), 50 mM NaCl, 5 mM MgCl2, 0.01% Brij35, 1 mM DTT, and 1% DMSO followed by the addition of recombinant human NSD2 (amino acids 2-end) with N-terminal His tag (2 nM; GenBank Accession No. NM_001042424; MW=155.5 kDa; expressed in Sf9 insect cells) and gentle mixing. The test compounds were diluted in DMSO (to 10 mM), and added to the reaction mixture in nanoliter amounts by using Acoustic Technology (Echo 550, LabCyte Inc. Sunnyvale, CA) and incubated for 20 minutes at room temperature. […] The reaction mixture was delivered to filter paper, and the methylated substrate was quantified by scintillation counting.
Data analysis was performed using Excel and GraphPad Prism software for IC50 curve fits. For additional information on the histone methyltransferase assay, see, for example, Horiuchi K Y, et al., “Assay Development for Histone Methyltransferases,” Assay Drug Dev Technol.

Sequence of recombinant human NSD2 (amino acids 2-end) with N-terminal His tag (O96028 2-1365 limits assumed): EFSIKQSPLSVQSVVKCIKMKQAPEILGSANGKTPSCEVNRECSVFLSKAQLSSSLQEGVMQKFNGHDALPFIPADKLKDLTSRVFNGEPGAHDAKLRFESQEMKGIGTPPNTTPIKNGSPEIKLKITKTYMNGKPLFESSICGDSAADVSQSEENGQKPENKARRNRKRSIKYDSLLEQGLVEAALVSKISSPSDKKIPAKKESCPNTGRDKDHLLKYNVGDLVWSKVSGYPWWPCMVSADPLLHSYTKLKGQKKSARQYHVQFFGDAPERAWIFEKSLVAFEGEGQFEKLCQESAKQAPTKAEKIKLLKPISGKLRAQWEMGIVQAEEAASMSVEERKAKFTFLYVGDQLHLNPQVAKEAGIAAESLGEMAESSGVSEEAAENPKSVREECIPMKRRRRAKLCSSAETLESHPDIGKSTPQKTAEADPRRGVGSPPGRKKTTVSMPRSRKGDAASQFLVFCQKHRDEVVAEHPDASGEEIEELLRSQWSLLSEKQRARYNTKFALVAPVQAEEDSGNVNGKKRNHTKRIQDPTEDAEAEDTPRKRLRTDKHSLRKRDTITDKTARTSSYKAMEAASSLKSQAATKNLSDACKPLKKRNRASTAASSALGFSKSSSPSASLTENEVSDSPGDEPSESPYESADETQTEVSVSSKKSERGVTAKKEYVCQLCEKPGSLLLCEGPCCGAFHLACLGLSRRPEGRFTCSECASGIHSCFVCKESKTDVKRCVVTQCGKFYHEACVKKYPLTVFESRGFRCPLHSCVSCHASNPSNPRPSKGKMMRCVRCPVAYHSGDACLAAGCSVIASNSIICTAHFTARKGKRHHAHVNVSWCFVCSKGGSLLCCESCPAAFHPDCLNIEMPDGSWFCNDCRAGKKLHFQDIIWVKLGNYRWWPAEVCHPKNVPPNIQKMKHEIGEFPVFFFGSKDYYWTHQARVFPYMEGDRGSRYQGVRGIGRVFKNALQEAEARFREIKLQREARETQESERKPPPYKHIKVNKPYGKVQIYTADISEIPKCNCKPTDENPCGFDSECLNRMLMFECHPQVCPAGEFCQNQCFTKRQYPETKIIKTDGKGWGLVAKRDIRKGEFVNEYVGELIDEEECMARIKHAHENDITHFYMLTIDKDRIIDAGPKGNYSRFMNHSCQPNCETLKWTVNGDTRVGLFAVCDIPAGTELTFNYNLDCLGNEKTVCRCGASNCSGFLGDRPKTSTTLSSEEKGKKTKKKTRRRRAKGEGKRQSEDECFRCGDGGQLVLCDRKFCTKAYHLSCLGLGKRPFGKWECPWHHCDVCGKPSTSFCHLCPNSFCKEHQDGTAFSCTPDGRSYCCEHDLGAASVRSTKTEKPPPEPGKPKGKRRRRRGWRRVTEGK

Question: How did the IC50 turn out when `Nc1ncnc2c1ncn2Cc1cc(-c2cc(F)c(OCCCCCNc3cccc4c3C(=O)N(C3CCC(=O)NC3=O)C4=O)c(F)c2)ncc1N1CCC[C@](N)(c2ccccn2)C1` (stereo partly drawn) [I-69, 4-((5-(4-(5-((R)-3-amino-3-(pyridin-2-yl)piperidin-1-yl)-4-((6-amino-9H-purin-9-yl)methyl)pyridin-2-yl)-2,6-difluorophenoxy)pentyl)amino)-2-(2,6-dioxopiperidin-3-yl)isoindoline-1,3-dione] was run?
Answer: Its IC50 is less than 50 nM.

Question: How did the IC50 turn out when `COc1cc(F)c(-c2cc(Cn3cnc4c(NCCCCCNc5cccc6c5C(=O)N(C5CCC(=O)NC5=O)C6=O)ncnc43)c(N3CCC[C@](N)([C@H](O)C(F)F)C3)cn2)cc1F` (stereo partly drawn) [I-76, 4-((5-((9-((5-((R)-3-amino-3-((S)-2,2-difluoro-1-hydroxyethyl)piperidin-1-yl)-2-(2,5-difluoro-4-methoxyphenyl)pyridin-4-yl)methyl)-9H-purin-6-yl)amino)pentyl)amino)-2-(2,6-dioxopiperidin-3-yl)isoindoline-1,3-dione] was run?
Answer: The IC50 was greater than 1000 nM.

Question: `Nc1ncnc2c1ncn2Cc1cc(-c2cc(F)c(OCC(=O)NCCCNc3cccc4c3C(=O)N(C3CCC(=O)NC3=O)C4=O)cc2F)ncc1N1CCC[C@](N)([C@H](O)C(F)F)C1` (stereo partly drawn) [I-66, 2-(4-(5-((R)-3-amino-3-((S)-2,2-difluoro-1-hydroxyethyl)piperidin-1-yl)-4-((6-amino-9H-purin-9-yl)methyl)pyridin-2-yl)-2,5-difluorophenoxy)-N-(3-((2-(2,6-dioxopiperidin-3-yl)-1,3-dioxoisoindolin-4-yl)amino)propyl)acetamide] was tested. Which IC50 did it give?
Answer: The IC50 was less than 50 nM.

Question: With `COc1c(F)cc(-c2cc(Cn3cnc4c(NCCCCCCCNc5cccc6c5C(=O)N(C5CCC(=O)NC5=O)C6=O)ncnc43)c(N3CCC[C@](N)(c4ccccn4)C3)cn2)cc1F` (stereo partly drawn) [I-82, 4-((7-((9-((5-((R)-3-amino-3-(pyridin-2-yl)piperidin-1-yl)-2-(3,5-difluoro-4-methoxyphenyl)pyridin-4-yl)methyl)-9H-purin-6-yl)amino)heptyl)amino)-2-(2,6-dioxopiperidin-3-yl)isoindoline-1,3-dione] as the molecule, how does the IC50 read?
Answer: Its IC50 is greater than 1000 nM.

Question: `Nc1ncnc2c1ncn2Cc1cc(-c2cc(F)c(OCCCCCCNc3cccc4c3C(=O)N(C3CCC(=O)NC3=O)C4=O)c(F)c2)ncc1N1CCC[C@](N)(c2ccccn2)C1` (stereo partly drawn) [I-71, 4-((6-(4-(5-((R)-3-amino-3-(pyridin-2-yl)piperidin-1-yl)-4-((6-amino-9H-purin-9-yl)methyl)pyridin-2-yl)-2,6-difluorophenoxy)hexyl)amino)-2-(2,6-dioxopiperidin-3-yl)isoindoline-1,3-dione] was tested. Which IC50 did it give?
Answer: Its IC50 is less than 50 nM.

Question: `Nc1ncnc2c1ncn2Cc1cc(-c2cc(F)c(OCCCCNc3cccc4c3C(=O)N(C3CCC(=O)NC3=O)C4=O)cc2F)ncc1N1CCC[C@](N)([C@H](O)C(F)F)C1` (stereo partly drawn) [I-61, 4-((4-(4-(5-((R)-3-amino-3-((S)-2,2-difluoro-1-hydroxyethyl)piperidin-1-yl)-4-((6-amino-9H-purin-9-yl)methyl)pyridin-2-yl)-2,5-difluorophenoxy)butyl)amino)-2-(2,6-dioxopiperidin-3-yl)isoindoline-1,3-dione] was tested. Which IC50 did it give?
Answer: Its IC50 is less than 50 nM.

Question: How did the IC50 turn out when `Cc1ncsc1-c1ccc(CNC(=O)[C@@H]2C[C@@H](O)CN2C(=O)[C@@H](NC(=O)CCOCCOCCOCCOc2cc(F)c(-c3cc(Cn4cnc5c(N)ncnc54)c(N4CCC[C@](N)([C@H](O)C(F)F)C4)cn3)cc2F)C(C)(C)C)cc1` [I-84] was run?
Answer: The IC50 was 100 to 1000 nM.

Question: `COc1c(F)cc(-c2cc(Cn3cnc4c(NCCCCCCNc5cccc6c5C(=O)N(C5CCC(=O)NC5=O)C6=O)ncnc43)c(N3CCC[C@@](N)(c4ccccn4)C3)cn2)cc1F` (stereo partly drawn) [I-81, 4-((6-((9-((5-((S)-3-amino-3-(pyridin-2-yl)piperidin-1-yl)-2-(3,5-difluoro-4-methoxyphenyl)pyridin-4-yl)methyl)-9H-purin-6-yl)amino)hexyl)amino)-2-(2,6-dioxopiperidin-3-yl)isoindoline-1,3-dione] was tested. Which IC50 did it give?
Answer: The IC50 was 50 to 100 nM.

Question: How did the IC50 turn out when `COc1c(F)cc(-c2cc(Cn3cnc4c(NCCCCCCNc5cccc6c5C(=O)N(C5CCC(=O)NC5=O)C6=O)ncnc43)c(N3CCC[C@](N)(c4ccccn4)C3)cn2)cc1F` (stereo partly drawn) [I-80, 4-((6-((9-((5-((R)-3-amino-3-(pyridin-2-yl)piperidin-1-yl)-2-(3,5-difluoro-4-methoxyphenyl)pyridin-4-yl)methyl)-9H-purin-6-yl)amino)hexyl)amino)-2-(2,6-dioxopiperidin-3-yl)isoindoline-1,3-dione] was run?
Answer: The IC50 was greater than 1000 nM.

Question: `COc1cc(F)c(-c2cc(Cn3cnc4c(NCCCCCCNc5cccc6c5C(=O)N(C5CCC(=O)NC5=O)C6=O)ncnc43)c(N3CCC[C@](N)([C@H](O)C(F)F)C3)cn2)cc1F` (stereo partly drawn) [I-77, 4-((6-((9-((5-((R)-3-amino-3-((S)-2,2-difluoro-1-hydroxyethyl)piperidin-1-yl)-2-(2,5-difluoro-4-methoxyphenyl)pyridin-4-yl)methyl)-9H-purin-6-yl)amino)hexyl)amino)-2-(2,6-dioxopiperidin-3-yl)isoindoline-1,3-dione] was tested. Which IC50 did it give?
Answer: Its IC50 is greater than 1000 nM.

Question: With `Nc1ncnc2c1ncn2Cc1cc(-c2cc(F)c(OCCCCCCNc3cccc4c3C(=O)N(C3CCC(=O)NC3=O)C4=O)cc2F)ncc1N1CCC[C@](N)([C@H](O)C(F)F)C1` (stereo partly drawn) [I-63, 4-((6-(4-(5-((R)-3-amino-3-((S)-2,2-difluoro-1-hydroxyethyl)piperidin-1-yl)-4-((6-amino-9H-purin-9-yl)methyl)pyridin-2-yl)-2,5-difluorophenoxy)hexyl)amino)-2-(2,6-dioxopiperidin-3-yl)isoindoline-1,3-dione] as the molecule, how does the IC50 read?
Answer: The IC50 was 100 to 1000 nM.

Question: How did the IC50 turn out when `Nc1ncnc2c1ncn2Cc1cc(-c2cc(F)c(OCCCCCNc3cccc4c3C(=O)N(C3CCC(=O)NC3=O)C4=O)c(F)c2)ncc1N1CCC[C@@](N)(c2ccccn2)C1` (stereo partly shown) [I-70] was run?
Answer: Its IC50 is greater than 1000 nM.

Question: For `Nc1ncnc2c1ncn2Cc1cc(-c2cc(F)c(OCCCCNc3cccc4c3C(=O)N(C3CCC(=O)NC3=O)C4=O)c(F)c2)ncc1N1CCC[C@](N)(c2ccccn2)C1` (stereo partly drawn) [I-67, 4-((4-(4-(5-((R)-3-amino-3-(pyridin-2-yl)piperidin-1-yl)-4-((6-amino-9H-purin-9-yl)methyl)pyridin-2-yl)-2,6-difluorophenoxy)butyl)amino)-2-(2,6-dioxopiperidin-3-yl)isoindoline-1,3-dione], which IC50 is on record?
Answer: Its IC50 is less than 50 nM.

Question: With `Nc1ncnc2c1ncn2Cc1cc(-c2cc(F)c(OCC(=O)Nc3cccc4c3C(=O)N(C3CCC(=O)NC3=O)C4=O)cc2F)ncc1N1CCC[C@](N)([C@H](O)C(F)F)C1` (stereo partly shown) [I-64] as the molecule, how does the IC50 read?
Answer: The IC50 was less than 50 nM.

Question: With `Nc1ncnc2c1ncn2Cc1cc(-c2cc(F)c(OCCCCCNc3cccc4c3C(=O)N(C3CCC(=O)NC3=O)C4=O)cc2F)ncc1N1CCC[C@](N)([C@H](O)C(F)F)C1` (stereo partly drawn) [I-62, 4-((5-(4-(5-((R)-3-amino-3-((S)-2,2-difluoro-1-hydroxyethyl)piperidin-1-yl)-4-((6-amino-9H-purin-9-yl)methyl)pyridin-2-yl)-2,5-difluorophenoxy)pentyl)amino)-2-(2,6-dioxopiperidin-3-yl)isoindoline-1,3-dione] as the molecule, how does the IC50 read?
Answer: The IC50 was 50 to 100 nM.

Question: How did the IC50 turn out when `Cc1ncsc1-c1ccc(CNC(=O)[C@@H]2C[C@@H](O)CN2C(=O)[C@@H](NC(=O)CCCCCCCCCCCOc2cc(F)c(-c3cc(Cn4cnc5c(N)ncnc54)c(N4CCC[C@](N)([C@H](O)C(F)F)C4)cn3)cc2F)C(C)(C)C)cc1` [I-85] was run?
Answer: The IC50 was 100 to 1000 nM.

Question: `Nc1ncnc2c1ncn2Cc1cc(-c2cc(F)c(OCC(=O)NCCNc3cccc4c3C(=O)N(C3CCC(=O)NC3=O)C4=O)cc2F)ncc1N1CCC[C@](N)([C@H](O)C(F)F)C1` (stereo partly drawn) [I-65, 2-(4-(5-((R)-3-amino-3-((S)-2,2-difluoro-1-hydroxyethyl)piperidin-1-yl)-4-((6-amino-9H-purin-9-yl)methyl)pyridin-2-yl)-2,5-difluorophenoxy)-N-(2-((2-(2,6-dioxopiperidin-3-yl)-1,3-dioxoisoindolin-4-yl)amino)ethyl)acetamide] was tested. Which IC50 did it give?
Answer: The IC50 was less than 50 nM.

Question: With `COc1c(F)cc(-c2cc(Cn3cnc4c(NCCCCCNc5cccc6c5C(=O)N(C5CCC(=O)NC5=O)C6=O)ncnc43)c(N3CCC[C@](N)(c4ccccn4)C3)cn2)cc1F` (stereo partly drawn) [I-79, 4-((5-((9-((5-((R)-3-amino-3-(pyridin-2-yl)piperidin-1-yl)-2-(3,5-difluoro-4-methoxyphenyl)pyridin-4-yl)methyl)-9H-purin-6-yl)amino)pentyl)amino)-2-(2,6-dioxopiperidin-3-yl)isoindoline-1,3-dione] as the molecule, how does the IC50 read?
Answer: The IC50 was 100 to 1000 nM.

Question: For `Nc1ncnc2c1ncn2Cc1cc(-c2cc(F)c(OCCCCNc3cccc4c3C(=O)N(C3CCC(=O)NC3=O)C4=O)c(F)c2)ncc1N1CCC[C@@](N)(c2ccccn2)C1` (stereo partly drawn) [I-68, 4-((4-(4-(5-((S)-3-amino-3-(pyridin-2-yl)piperidin-1-yl)-4-((6-amino-9H-purin-9-yl)methyl)pyridin-2-yl)-2,6-difluorophenoxy)butyl)amino)-2-(2,6-dioxopiperidin-3-yl)isoindoline-1,3-dione], which IC50 is on record?
Answer: Its IC50 is greater than 1000 nM.
